Measured values: EP0341213A2, “5-Aryl-substituted-2,3-dihydro-imidazo [1,2-a]furo[3,2-c]- or thieno[2,3-c]pyridines” (SANDOZ AG, priority 1988, dated 1989)

Key:
[1] = tested on: PAF-mediated extravasation; assay: PAF-induced Extravasation test (test C), measured as a function of hemoconcentration; type: in vivo; conditions: po
From the text: Furthermore, the compounds are indicated for use as inhibitors of PAF-mediated extravasation (the extrusion of plasma from the lumen of the blood vessels into the vessel wall and surrounding tissues) measured as a function of hemoconcentration according to the PAF-induced Extravasation test (test C) as described in WO 88/587. From the values obtained an EDso is generated.

[2] = target: T1, platelet activating factor (PAF) receptor (Homo sapiens, UniProt P25105); assay: Human Platelet PAF Receptor Assay test (test A): inhibition of specific binding of [3H]-PAF to platelets
T1 construct: endogenous in cells; host or cells: human platelets
From the text: The compounds of formula I in free base form or in pharmaceutically acceptable acid addition salt form, hereinafter referred to as "the compounds", are indicated for use as platelet activating factor (PAF) receptor antagonists, as indicated by their ability to inhibit specific binding of [^3H)-PAF to platelets according to the Human Platelet PAF Receptor Assay test (test A) as described in WO 88/587.

[3] = tested on: PAF-mediated bronchoconstriction; assay: PAF-induced Pulmonary Inflation Pressure (PIP) Increase test (test B); type: in vivo; conditions: po
Protocol: Moreover, in view of their activity as PAF receptor antagonists, the compounds are indicated for use as inhibitors of PAF-mediated bronchoconstriction, which property is evaluated by the PAF-induced Pulmonary Inflation Pressure (PIP) Increase test (test B) as described in WO 88/587, to generate an EDso (dose needed to effect a 50°/o response).

T1 sequence (P25105 whole entry): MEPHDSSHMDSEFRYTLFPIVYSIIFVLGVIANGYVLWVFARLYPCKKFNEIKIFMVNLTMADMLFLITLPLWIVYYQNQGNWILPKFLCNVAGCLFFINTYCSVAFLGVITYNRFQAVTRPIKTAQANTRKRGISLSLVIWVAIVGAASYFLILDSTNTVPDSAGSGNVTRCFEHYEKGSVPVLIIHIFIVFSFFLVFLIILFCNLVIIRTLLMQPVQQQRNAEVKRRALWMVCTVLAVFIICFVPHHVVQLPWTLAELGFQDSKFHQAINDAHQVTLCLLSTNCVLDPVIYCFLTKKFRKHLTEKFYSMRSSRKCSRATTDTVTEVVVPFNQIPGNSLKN

Structure (SMILES)	inhibition at 10 mg/kg ([1]; at 10 mg/kg p.o.)	IC50 [2]	inhibition at 10 mg/kg ([3]; at 10 mg/kg p.o.)	ED50 [1]	ED50 ([3]; dose needed to effect a 50% response, read-out: EDso)
COc1cc(CCc2ccc(C3=Cc4oc(C)cc4C4=NCCN34)cc2)cc(OC)c1OC [Example 2, 2,3-Dihydro-8-methyl-5-[4-[2-(3,4,5-trimethoxyphenyl)ethyl]phenyl]imidazo[1,2-a]furo[3,2-c]pyridine]	59%	70 nM	38%		
COc1cc(CCc2ccc(C3=Cc4ccsc4C4=NCCN34)cc2)cc(OC)c1OC [Example 1, 2,3-Dihydro-5-[4-[2-(3,4,5-trimethoxyphenyl)ethyl]phenyl]imidazo[1,2-a]thieno[2,3-c]pyridine]		100 nM		1 mg/kg	1 mg/kg
